Like-named read-outs stand apart in the source and are kept apart here. A value given as a limit tells only on which side of the number the result lay.

Experiment [1] concerns 80S14 (p21-deficient) cells. Nature of the experiment: Cytotoxicity assay using isogenic cell lines: IC50 in 80S14 (p21-deficient) cells, SRB. In kind it is cell-based, human. In a few lines:
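80S14 (p21-deficient) cells seeded at 12,000 cells/well overnight, then exposed 5 days at 37 °C to serial dilutions (5 pM–50 μM or 170 pg/ml–10 μg/ml). TCA-fixed, sulforhodamine B-stained, absorbance at 560 nm; IC50 taken from cytotoxicity curves versus untreated controls.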

The test system of a further experiment is LoVo Colon cell line. Nature of the experiment: Cytotoxicity assay using LoVo colon cell line, SRB. In kind it is cell-based. The settings on record: read-out: Inhibition of LoVo. In a few lines: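 LoVo cells (4000/well, RPMI 1640 with 10% FBS, 37 °C, 7% CO2) seeded overnight, then exposed 4 days to serial dilutions spanning 5 pM-20 μM or 170 pg/ml-10 μg/ml. Survival by SRB staining; IC50 from curves relative to untreated controls.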

Where [2] appears, read: Homo sapiens, 120 h, 80S14 (p21-deficient) cells, 5 days, SRB, class symbols, read-out: IC50 for 80S14.
Where [3] appears, read: Homo sapiens, 96 h, Cellular activity in LoVo cell, 4 days incubation, SRB.
[4] abbreviates: Homo sapiens, 80S14, 120 h, read-out: IC50 for 80S14 (uM).
The mark [5] stands for this setting: 80S14 (p21-deficient) cells, 5 days, SRB, class symbols, read-out: IC50 for 80S14.
Where [6] appears, read: Cellular activity in LoVo cell, 4 days incubation, SRB.
[7] abbreviates: Homo sapiens, 80S14, 120 h, read-out: IC50 for 80SI4 (uM).
The mark [8] stands for this setting: 80S14 p21-deficient cells, 5 days incubation, SRB, read-out: IC50 for 80SI4.
[9] abbreviates: LoVo colon cells, 4 days incubation, SRB.

As for `O=C(CCC(Cl)(Cl)Cl)Nc1cccc(-c2ccnc3c(C(=O)c4cccs4)cnn23)c1` [Example 354, 4,4,4-Trichloro-N-{3-[3-(thien-2-ylcarbonyl)pyrazolo[1,5-a]pyrimidin-7-yl]phenyl}butanamide], the IC50 was less than 1 µM in experiment [1] (setting [2]) and less than 100 nM in the experiment on LoVo Colon cell line (setting [3]).
In the same order, the values of `O=C(CC1CCNCC1)Nc1cccc(-c2ccnc3c(C(=O)c4cccs4)cnn23)c1` [Example 393, 2-Piperidin-4-yl-N-{3-[3-(thien-2-ylcarbonyl)pyrazolo[1,5-a]pyrimidin-7-yl]phenyl}acetamide] are 1 to 10 µM and 100 to 1000 nM.
On the same counts, the results for `O=C(c1cccs1)c1cnn2c(-c3cccc(-c4ccn(Cc5ccccn5)n4)c3)ccnc12` [Example 517, (7-{3-[1-(Pyridin-2-ylmethyl)-1H-pyrazol-3-yl]phenyl}pyrazolo[1,5-a]pyrimidin-3-yl)(thien-2-yl)methanone] are less than 1 µM and 100 to 1000 nM.
As to `CC/C=C(\C)CNc1cccc(-c2ccnc3c(C(=O)c4cccs4)cnn23)c1` [Example 426, [7-(3-{[(2E)-2-Methylpent-2-enyl]amino}phenyl)pyrazolo[1,5-a]pyrimidin-3-yl](thien-2-yl)methanone], the IC50 in experiment [1] (setting [2]) is 1 to 10 µM; with LoVo Colon cell line (setting [3]) it was 100 to 1000 nM.
On the same counts, the results for `CC(C)=CCNc1cccc(-c2ccnc3c(C(=O)c4cccs4)cnn23)c1` [Example 371, (7-{3-[(3-Methylbut-2-enyl)amino]phenyl}pyrazolo[1,5-a]pyrimidin-3-yl)(thien-2-yl)methanone] are less than 1 µM and less than 100 nM.
`CC(C)CC(=O)Nc1cc(-c2ccnc3c(C(=O)c4cccs4)cnn23)ccc1F` [Example 342, N-{2-Fluoro-5-[3-(thien-2-ylcarbonyl)pyrazolo[1,5-a]pyrimidin-7-yl]phenyl}-3-methylbutanamide]: the IC50 is less than 1 µM in experiment [1] (setting [4]) and less than 100 nM with LoVo Colon cell line (Homo sapiens, LoVo, 96 h).
Take `CC(C)=CCOC(=O)Nc1cccc(-c2ccnc3c(C(=O)c4cccs4)cnn23)c1` [Example 177, 3-methylbut-2-enyl 3-[3-(thien-2-ylcarbonyl)pyrazolo[1,5-a]pyrimidin-7-yl]phenylcarbamate]: the IC50 in experiment [1] (Homo sapiens, 120 h, 80S14 p21-deficient cells, 5 days incubation, SRB, read-out: IC50 for 80SI4) was 1 to 10 µM; in the experiment on LoVo Colon cell line (Homo sapiens, 96 h, LoVo colon cells, 4 days incubation, SRB), less than 100 nM.
For “Thienylcarbonyl)pyrazolo[1,5-a]pyrimidin-7-yl]phenyl}cyclobutanecarboxamide [Example 275]”, the values for the IC50 (in experiment [1] (setting [5]); in the experiment on LoVo Colon cell line (setting [6])) were less than 1 µM and less than 100 nM, respectively.
Take `CCOC(=S)Nc1cccc(-c2ccnc3c(C(=O)c4cccs4)cnn23)c1` [Example 332, O-Ethyl 3-[3-(thien-2-ylcarbonyl)pyrazolo[1,5-a]pyrimidin-7-yl]phenylthiocarbamate]: the figures for the IC50 (in experiment [1] (setting [2]); in the experiment with LoVo Colon cell line (setting [3])) were less than 1 µM and less than 100 nM, respectively.
Turning to `Cc1ccccc1CNc1cccc(-c2ccnc3c(C(=O)c4cccs4)cnn23)c1` [Example 377, (7-{3-[(2-Methylbenzyl)amino]phenyl}pyrazolo[1,5-a]pyrimidin-3-yl)(thien-2-yl)methanone], the figures for the IC50 (in experiment [1] (setting [2]); with LoVo Colon cell line (setting [3])) were 1 to 10 µM and 100 to 1000 nM, respectively.
With `CCOC(=O)Nc1cccc(-c2ccnc3c(C(=O)c4cccs4)cnn23)c1` [Example 25, ethyl 3-[3-(thien-2-ylcarbonyl)pyrazolo[1,5-a]pyrimidin-7-yl]phenylcarbamate], the IC50 was less than 1 µM in experiment [1] (setting [7]) and less than 100 nM in the experiment on LoVo Colon cell line (Homo sapiens, LoVo, 96 h).
`CCCCn1nnc(-c2cccc(-c3ccnc4c(C(=O)c5cccs5)cnn34)c2)n1` [Example 506, {7-[3-(2-Butyl-2H-tetraazol-5-yl)phenyl]pyrazolo[1,5-a]pyrimidin-3-yl) (thien-2-yl)methanone]: the IC50 is less than 1 µM in experiment [1] (setting [2]) and less than 100 nM in the experiment on LoVo Colon cell line (setting [3]).
As to “(7-{3-[1-(Pyridin-2-ylmethyl)-1H-pyrazol-3-yl]phenyl}pyrazolo[1,5-a]pyrimidin-3-yl)(thien-2-yl)methanone [Example 516]”, the values for the IC50 (in experiment [1] (setting [5]); in the experiment with LoVo Colon cell line (setting [6])) were less than 1 µM and less than 100 nM, respectively.
With `CC(C)NC(=S)Nc1cccc(-c2ccnc3c(C(=O)c4cccs4)cnn23)c1` [Example 389, N-Isopropyl-N′-{3-[3-(thien-2-ylcarbonyl)pyrazolo[1,5-a]pyrimidin-7-yl]phenyl}thiourea], the IC50 in experiment [1] (setting [2]) is less than 1 µM; in the experiment on LoVo Colon cell line (setting [3]), less than 100 nM.
With `CC(C)CCC(=O)Nc1cccc(-c2ccnc3c(C(=O)c4cccs4)cnn23)c1` [Example 56, 4-methyl-N-{3-[3-(thien-2-ylcarbonyl)pyrazolo[1,5-a]pyrimidin-7-yl]phenyl}pentanamide], the IC50 is less than 1 µM in experiment [1] (setting [7]) and less than 100 nM with LoVo Colon cell line (Homo sapiens, LoVo, 96 h).
Consider `CC(C)CC(=O)Nc1cccc(-c2ccnc3c(-c4cccc(Cl)c4)cnn23)c1` [Example 471, N-{3-[3-(3-Chlorophenyl)pyrazolo[1,5-a]pyrimidin-7-yl]phenyl}-3-methylbutanamide], for which the IC50 in experiment [1] (setting [2]) was 10 to 50 µM; in the experiment with LoVo Colon cell line (setting [3]), 1000 to 20000 nM.
As for `CC(C)CC(=O)Nc1cccc(-c2ccnc3c(C(=O)c4ccsc4)cnn23)c1` [Example 297, 3-Methyl-N-{3-[3-(3-thienylcarbonyl)pyrazolo[1,5-a]pyrimidin-7-yl]phenyl}butanamide], the IC50 in experiment [1] (setting [4]) is less than 1 µM; with LoVo Colon cell line (Homo sapiens, LoVo, 96 h) it was less than 100 nM.
In the case of `CC(C)CC(=O)Nc1cccc(-c2ccnc3c(-c4ccc(Cl)c(Cl)c4)cnn23)c1` [Example 474, N-{3-[3-(3,4-Dichlorophenyl)pyrazolo[1,5-a]pyrimidin-7-yl]phenyl}-3-methylbutanamide], the IC50 fell in the range of 10 to 50 µM in experiment [1] (setting [2]) and 1000 to 20000 nM in the experiment on LoVo Colon cell line (setting [3]).
On the same counts, the results for `CC(C)(C)CC(=O)Nc1cc(-c2ccnc3c(C(=O)c4cccs4)cnn23)ccc1F` [Example 355, N-{2-Fluoro-5-[3-(thien-2-ylcarbonyl)pyrazolo[1,5-a]pyrimidin-7-yl]phenyl}-3,3-dimethylbutanamide] are less than 1 µM and less than 100 nM.
On to `O=C(c1cccs1)c1cnn2c(-c3cccc(-c4nnn(CCO)n4)c3)ccnc12` [Example 513, (7-{3-[2-(2-Hydroxyethyl)-2H-tetraazol-5-yl]phenyl}pyrazolo[1,5-a]pyrimidin-3-yl)(thien-2-yl)methanone], for which the IC50 was 1 to 10 µM in experiment [1] (setting [2]) and 100 to 1000 nM in the experiment with LoVo Colon cell line (setting [3]).
“N-{3-[6-methyl-3-(thien-2-ylcarbonyl)pyrazolo[1,5-a]pyrimidin-7-yl]phenyl}cycopropanecarboxamide [Example 217]”: the results for the IC50 (in experiment [1] (setting [8]); with LoVo Colon cell line (setting [9])) were 10 to 50 µM and less than 100 nM, respectively.
Turning to `Cc1cc(C)cc(-c2cnn3c(-c4cccc(C#N)c4)ccnc23)c1` [Example 490, 3-[3-(3,5-Dimethylphenyl)pyrazolo[1,5-a]pyrimidin-7-yl]benzonitrile], the IC50 was 10 to 50 µM in experiment [1] (setting [2]) and 1000 to 20000 nM with LoVo Colon cell line (setting [3]).
On the same counts, the results for `CC(CCNc1cccc(-c2ccnc3c(C(=O)c4cccs4)cnn23)c1)CC(C)(C)C` (stereo not drawn) [Example 433, Thien-2-yl(7-{3-[(3,5,5-trimethylhexyl)amino]phenyl}pyrazolo[1,5-a]pyrimidin-3-yl)methanone] are 1 to 10 µM and 100 to 1000 nM.
Consider `CC(C)CC(=O)Nc1cccc(-c2ccnc3c(-c4cccc(C(F)(F)F)c4)cnn23)c1` [Example 477, 3-Methyl-N-(3-{3-[3-(trifluoromethyl)phenyl]pyrazolo[1,5-a]pyrimidin-7-yl}phenyl)butanamide], for which the IC50 lay within 10 to 50 µM in experiment [1] (setting [2]) and 1000 to 20000 nM in the experiment with LoVo Colon cell line (setting [3]).
In the same order, the values of `O=C(c1cccs1)c1cnn2c(-c3cccc(NCc4ccoc4)c3)ccnc12` [Example 369, (7-{3-[(3-Furylmethyl)amino]phenyl}pyrazolo[1,5-a]pyrimidin-3-yl)(thien-2-yl)methanone] are 1 to 10 µM and 100 to 1000 nM.
Consider `O=C(Nc1cccc(-c2ccnc3c(C(=O)c4cccs4)cnn23)c1)OCCCl` [Example 22], for which the IC50 is less than 1 µM in experiment [1] (setting [8]) and less than 100 nM with LoVo Colon cell line (setting [9]).
In the case of `O=C(O)c1cc(Cl)c(Cl)cc1C(=O)Nc1cccc(-c2ccnc3c(C(=O)c4cccs4)cnn23)c1` [Example 446, 4,5-Dichloro-2-[({3-[3-(thien-2-ylcarbonyl)pyrazolo[1,5-a]pyrimidin-7-yl]phenyl}amino)carbonyl]benzoic acid], the results for the IC50 (in experiment [1] (setting [2]); with LoVo Colon cell line (setting [3])) were 10 to 50 µM and 1000 to 20000 nM, respectively.
In the same order, the values of `O=C(Nc1cccc(-c2ccnc3c(C(=O)c4cccs4)cnn23)c1)c1c(Cl)cccc1Cl` [Example 384, 2,6-Dichloro-N-{3-[3-(thien-2-ylcarbonyl)pyrazolo[1,5-a]pyrimidin-7-yl]phenyl}benzamide] are 1 to 10 µM and 100 to 1000 nM.
As for `O=C(c1cccs1)c1cnn2c(-c3ccc(Cl)nc3)ccnc12` [Example 373, [7-(6-Chloropyridin-3-yl)pyrazolo[1,5-a]pyrimidin-3-yl](thien-2-yl)methanone], the IC50 in experiment [1] (setting [2]) lay in the range of 10 to 50 µM; in the experiment on LoVo Colon cell line (setting [3]) it was 1000 to 20000 nM.
With `CC(C)CC(=O)Nc1cccc(-c2ccnc3c(-c4ccc5[nH]ccc5c4)cnn23)c1` [Example 466, N-{3-[3-(1H-Indol-5-yl)pyrazolo[1,5-a]pyrimidin-7-yl]phenyl}-3-methylbutanamide], the IC50 in experiment [1] (setting [2]) was 1 to 10 µM; in the experiment with LoVo Colon cell line (setting [3]), less than 100 nM.
